Among the data in patent US20220127247A1, “N-(PYRIDIN-2-YL)PYRIDINE-SULFONAMIDE DERIVATIVES AND THEIR USE IN THE TREATMENT OF DISEASE” (NOVARTIS AG, priority 2019, published 2022) are EC50 and Emax values, retold here.

The target in this assay is T1, delF508-CFTR (Homo sapiens, UniProt P13569, DEL508-508).
T1 construct: expressed in transfected cells
In words: Measurement of delF508-CFTR-HRP surface expression in CFBE41o- cells. Particulars: for EC50: HRP-tagged delF508-CFTR in CFBE41o- cells, 24 h with compound, luminescence, 10-point curve, top 10 μM; for Emax: efficacy relative to reference compound 3-(6-(1-(2,2-difluorobenzo[d][1,3]dioxol-5-yl)cyclopropane-1-carboxamido)-3-methylpyridin-2-yl)benzoic acid, CFBE41o- cells, 24 h, read-out: DelF508-CFTR-HRP Amax %. It is filed as cell-based. An outline of the steps: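 CFBE41o- cells stably expressing delF508-CFTR with HRP in the fourth extracellular loop, induced with 500 ng/mL doxycycline for 48 h, then treated with compound (top 10 μM, 10-point 3-fold) for 24 h at 37° C. Surface HRP detected by luminescence with cell-impermeant substrate; EC50 from logistic fit of triplicates, normalized to lowest concentration.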

T1 sequence (P13569 with tags, fused parts or gaps DEL508-508): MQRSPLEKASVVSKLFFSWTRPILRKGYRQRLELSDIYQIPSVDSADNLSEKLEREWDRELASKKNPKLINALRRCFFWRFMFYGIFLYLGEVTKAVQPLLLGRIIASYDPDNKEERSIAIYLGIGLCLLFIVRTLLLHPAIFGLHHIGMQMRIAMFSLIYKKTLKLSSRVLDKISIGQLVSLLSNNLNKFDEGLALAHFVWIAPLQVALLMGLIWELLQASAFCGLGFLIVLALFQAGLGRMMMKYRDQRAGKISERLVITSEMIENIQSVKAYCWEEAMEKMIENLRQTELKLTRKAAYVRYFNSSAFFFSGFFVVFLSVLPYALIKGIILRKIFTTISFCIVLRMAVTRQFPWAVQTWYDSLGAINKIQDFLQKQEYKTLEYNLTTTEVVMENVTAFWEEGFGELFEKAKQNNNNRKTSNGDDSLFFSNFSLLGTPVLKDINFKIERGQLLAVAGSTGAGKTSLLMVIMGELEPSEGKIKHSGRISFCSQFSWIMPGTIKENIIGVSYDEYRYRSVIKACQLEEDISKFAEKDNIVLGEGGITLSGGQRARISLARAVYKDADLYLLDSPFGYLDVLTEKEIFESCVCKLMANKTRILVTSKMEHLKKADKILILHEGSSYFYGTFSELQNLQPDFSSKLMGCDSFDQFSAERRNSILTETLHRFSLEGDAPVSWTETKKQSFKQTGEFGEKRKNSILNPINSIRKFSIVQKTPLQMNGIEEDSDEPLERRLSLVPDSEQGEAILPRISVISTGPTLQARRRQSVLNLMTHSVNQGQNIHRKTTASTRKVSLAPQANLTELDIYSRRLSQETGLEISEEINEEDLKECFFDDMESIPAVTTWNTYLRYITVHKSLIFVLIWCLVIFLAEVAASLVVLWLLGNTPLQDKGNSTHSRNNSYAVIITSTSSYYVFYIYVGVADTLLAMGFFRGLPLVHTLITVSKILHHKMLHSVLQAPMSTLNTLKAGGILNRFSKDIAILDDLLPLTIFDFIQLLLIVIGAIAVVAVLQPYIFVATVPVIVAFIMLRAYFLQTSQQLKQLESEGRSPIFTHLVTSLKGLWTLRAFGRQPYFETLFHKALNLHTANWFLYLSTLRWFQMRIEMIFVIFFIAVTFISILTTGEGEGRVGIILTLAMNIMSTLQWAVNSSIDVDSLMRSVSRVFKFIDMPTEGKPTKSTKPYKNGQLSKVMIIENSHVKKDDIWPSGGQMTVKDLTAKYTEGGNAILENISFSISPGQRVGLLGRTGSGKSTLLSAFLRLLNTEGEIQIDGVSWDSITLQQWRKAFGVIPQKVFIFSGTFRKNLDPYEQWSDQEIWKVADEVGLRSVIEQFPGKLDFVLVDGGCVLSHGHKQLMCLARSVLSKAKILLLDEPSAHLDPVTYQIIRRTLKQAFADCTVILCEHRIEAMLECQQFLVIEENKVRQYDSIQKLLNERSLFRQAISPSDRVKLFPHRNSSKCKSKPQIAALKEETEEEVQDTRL

As for `Cc1ccccc1-c1nc(NS(=O)(=O)c2cccc(N(C)CCCC(=O)O)n2)ccc1C(F)(F)F` [Compound 37, 4-(methyl(6-(N-(6-(o-tolyl)-5-(trifluoromethyl)pyridin-2-yl)sulfamoyl)pyridin-2-yl)amino)butanoic Acid], the EC50 came out at 2050 nM and the Emax amounted to 982%.

For `CCN(CCC(=O)O)c1cccc(S(=O)(=O)Nc2ccc(C(F)(F)F)c(-c3cc(F)ccc3C)n2)n1` [Compound 61, 3-(ethyl(6-(N-(6-(5-fluoro-2-methylphenyl)-5-(trifluoromethyl)pyridin-2-yl)sulfamoyl)pyridin-2-yl)amino)propanoic Acid], the EC50 is 3560 nM and the Emax was found to be 736%.

As to `Cc1ccccc1-c1nc(NS(=O)(=O)c2cccc(NC3CCCC(C(=O)O)C3)n2)ccc1C(F)(F)F` (mixture of isomers) [Compound 105, 3-((6-(N-(6-(o-tolyl)-5-(trifluoromethyl)pyridin-2-yl)sulfamoyl)pyridin-2-yl)amino)cyclohexane-1-carboxylic Acid], the EC50 was 1810 nM and the Emax was determined as 361%.

Regarding `Cc1ccccc1-c1nc(NS(=O)(=O)c2cccc(N3CCC(C(C)(C)C(=O)O)CC3)n2)ccc1C(F)(F)F` [Compound 10, 2-methyl-2-(1-(6-(N-(6-(o-tolyl)-5-(trifluoromethyl)pyridin-2-yl)sulfamoyl)pyridin-2-yl)piperidin-4-yl)propanoic Acid], the EC50 is 910 nM and the Emax amounted to 266%.

Turning to `CC1(CC(=O)O)CCN(c2cccc(S(=O)(=O)Nc3ccc(C(F)(F)F)c(-c4ccccc4C(C)(C)C)n3)n2)CC1` [Compound 26, 2-(1-(6-(N-(6-(2-(tert-butyl)phenyl)-5-(trifluoromethyl)pyridin-2-yl)sulfamoyl)pyridin-2-yl)-4-methylpiperidin-4-yl)acetic Acid], the EC50 came out at 830 nM and the Emax is 829%.

For `Cc1ccccc1-c1nc(NS(=O)(=O)c2cccc(N(CCCC(=O)O)CC(C)C)n2)ccc1Cl` [Compound 154, 4-((6-(N-(5-chloro-6-(o-tolyl)pyridin-2-yl)sulfamoyl)pyridin-2-yl)(isobutyl)amino)butanoic Acid], the EC50 was found to be 930 nM and the Emax was 686%.

Regarding `CCCCN(CCCC(=O)O)c1cccc(S(=O)(=O)Nc2ccc(Cl)c(-c3cccnc3C(C)C)n2)n1` [Compound 112, 4-(butyl(6-(N-(3-chloro-2′-isopropyl-[2,3′-bipyridin]-6-yl)sulfamoyl)pyridin-2-yl)amino)butanoic Acid], the EC50 was 1570 nM.

On to `Cc1cccc(C)c1-c1nc(NS(=O)(=O)c2cccc(NCCC(=O)O)n2)ccc1Cl` [Compound 1, 3-((6-(N-(5-chloro-6-(2,6-dimethylphenyl)pyridin-2-yl)sulfamoyl)pyridin-2-yl)amino)propanoic Acid], for which the EC50 worked out at 2150 nM and the Emax is 291%.

For `Cc1ccccc1-c1nc(NS(=O)(=O)c2cccc(N(C)CC3(C(=O)O)CCCC3)n2)ccc1C(F)(F)F` [Compound 130, 1-((methyl(6-(N-(6-(o-tolyl)-5-(trifluoromethyl)pyridin-2-yl)sulfamoyl)pyridin-2-yl)amino)methyl)cyclopentane-1-carboxylic Acid], the EC50 came out at 2060 nM and the Emax came to 403%.

As for `CCc1ccc(F)cc1-c1nc(NS(=O)(=O)c2cccc(N(CCC(=O)O)C3CC3)n2)ccc1C(F)(F)F` [Compound 113, 3-(cyclopropyl(6-(N-(6-(2-ethyl-5-fluorophenyl)-5-(trifluoromethyl)pyridin-2-yl)sulfamoyl)pyridin-2-yl)amino)propanoic Acid], the EC50 is 1770 nM and the Emax worked out at 715%.

For `CC1(C(=O)O)CCN(c2cccc(S(=O)(=O)Nc3ccc(C(F)(F)F)c(-c4ccccc4-c4ncccn4)n3)n2)CC1` [Compound 18, 4-methyl-1-(6-(N-(6-(2-(pyrimidin-2-yl)phenyl)-5-(trifluoromethyl)pyridin-2-yl)sulfamoyl)pyridin-2-yl)piperidine-4-carboxylic Acid], the EC50 came to 2390 nM and the Emax came to 97%.

In the case of `Cc1ccc(F)cc1-c1nc(NS(=O)(=O)c2cccc(N(C)CC(C)(C)C(=O)O)n2)ccc1C(F)(F)F` [Compound 45, 3-((6-(N-(6-(5-fluoro-2-methylphenyl)-5-(trifluoromethyl)pyridin-2-yl)sulfamoyl)pyridin-2-yl)(methyl)amino)-2,2-dimethylpropanoic Acid], the 50% effective concentration (EC50) was 1570 nM and the Emax came out at 598%.

`Cc1ccccc1-c1nc(NS(=O)(=O)c2cccc(OCCC(=O)O)n2)ccc1C(F)(F)F` [Compound 121, 3-((6-(N-(6-(o-tolyl)-5-(trifluoromethyl)pyridin-2-yl)sulfamoyl)pyridin-2-yl)nxy)propanoic Acid]: the EC50 was found to be 3280 nM and the Emax is 167%.

`Cc1ccccc1-c1nc(NS(=O)(=O)c2cccc(N(CCCCC(=O)O)C(C)C)n2)ccc1C(F)(F)F` [Compound 101, 5-(isopropyl(6-(N-(6-(o-tolyl)-5-(trifluoromethyl)pyridin-2-yl)sulfamoyl)pyridin-2-yl)amino)pentanoic Acid]: the EC50 stood at 1590 nM.

As for `Cc1ccccc1-c1nc(NS(=O)(=O)c2cccc(NCCCCC(=O)O)n2)ccc1C(F)(F)F` [Compound 43, 5-((6-(N-(6-(o-tolyl)-5-(trifluoromethyl)pyridin-2-yl)sulfamoyl)pyridin-2-yl)amino)pentanoic Acid], the EC50 was 2370 nM and the Emax was 407%.

In the case of `Cc1c(F)cccc1-c1nc(NS(=O)(=O)c2cccc(N3CCC(C)(CC(=O)O)C3)n2)ccc1C(F)(F)F` (stereo not shown) [Compound 54, 2-(1-(6-(N-(6-(3-fluoro-2-methylphenyl)-5-(trifluoromethyl)pyridin-2-yl)sulfamoyl)pyridin-2-yl)-3-methylpyrrolidin-3-yl)acetic Acid], the EC50 was 2000 nM and the Emax was found to be 369%.

For `CCN(CCC(=O)O)c1cc(S(=O)(=O)Nc2ccc(Cl)c(-c3c(C)cccc3C)n2)ccn1` [Compound 140, 3-((4-(N-(5-chloro-6-(2,6-dimethylphenyl)pyridin-2-yl)sulfamoyl)pyridin-2-yl)(ethyl)amino)propanoic Acid], the EC50 turned out to be 2920 nM and the Emax was 209%.

For `Cc1c(F)cccc1-c1nc(NS(=O)(=O)c2cccc(N(C)CCC(=O)O)n2)ccc1C(F)(F)F` [Compound 49, 3-((6-(N-(6-(3-fluoro-2-methylphenyl)-5-(trifluoromethyl)pyridin-2-yl)sulfamoyl)pyridin-2-yl)(methyl)amino)propanoic Acid], the EC50 came out at 2030 nM and the Emax came to 557%.

Regarding `C=Cc1ccccc1-c1nc(NS(=O)(=O)c2cccc(N3CCC[C@H](CC(=O)OCC)C3)n2)ccc1C(F)(F)F` [Compound 77, ethyl (R)-2-(1-(6-(N-(5-(trifluoromethyl)-6-(2-vinylphenyl)pyridin-2-yl)sulfamoyl)pyridin-2-yl)piperidin-3-yl)acetate], the half-maximal effective concentration (EC50) is 1450 nM and the Emax came out at 945%.

Consider `Cc1ccc(F)cc1-c1nc(NS(=O)(=O)c2cccc(N(C)CC3(C(=O)O)CCOCC3)n2)ccc1C(F)(F)F` [Compound 138, 4-(((6-(N-(6-(5-fluoro-2-methylphenyl)-5-(trifluoromethyl)pyridin-2-yl)sulfamoyl)pyridin-2-yl)(methyl)amino)methyl)tetrahydro-2H-pyran-4-carboxylic Acid], for which the EC50 was 1980 nM and the Emax came out at 463%.

With `Cc1ccc(F)cc1-c1nc(NS(=O)(=O)c2cccc(N(CCCC(=O)O)CC3CC3)n2)ccc1C(F)(F)F` [Compound 104, 4-((cyclopropylmethyl)(6-(N-(6-(5-fluoro-2-methylphenyl)-5-(trifluoromethyl)pyridin-2-yl)sulfamoyl)pyridin-2-yl)amino)butanoic Acid], the EC50 worked out at 1280 nM.

On to `CC(C)c1ccccc1-c1nc(NS(=O)(=O)c2cccc(N3CCC(C)(CC(=O)O)CC3)n2)ccc1C(F)(F)F` [Compound 25, 2-(1-(6-(N-(6-(2-isopropylphenyl)-5-(trifluoromethyl)pyridin-2-yl)sulfamoyl)pyridin-2-yl)-4-methylpiperidin-4-yl)acetic Acid], for which the EC50 is 1000 nM and the Emax was determined as 780%.

Take `Cc1ccc(F)cc1-c1nc(NS(=O)(=O)c2cccc(N(C)CCC(=O)O)n2)ccc1C(F)(F)F` [Compound 48, 3-((6-(N-(6-(5-fluoro-2-methylphenyl)-5-(trifluoromethyl)pyridin-2-yl)sulfamoyl)pyridin-2-yl)(methyl)amino)propanoic Acid]: the EC50 was determined as 2040 nM and the Emax is 513%.

Usually EC50 stands for the concentration at which the effect is half-maximal.
